For experiment [1], the target named is T1, Human immunodeficiency virus type 1 reverse transcriptase (Human immunodeficiency virus 1, UniProt Q72547). The experiment can be described thus: Inhibition of HIV1 reverse transcriptase p66/p51.
The target of experiment [2] is DNA polymerase beta (Homo sapiens, UniProt P06746). The experiment can be described thus: Inhibition of DNA polymerase beta.
A short description of experiment [3]: Inhibition of HIV2 reverse transcriptase p66/p51. On the set-up: species or system Human immunodeficiency virus 2.
Experiment [4] in a line: Inhibition of RNA polymerase.
Experiment [5] is described as follows: Inhibition of AMV reverse transcriptase. On the set-up: species or system Avian myeloblastosis virus.
Experiment [6] deals with T1, Human immunodeficiency virus type 1 reverse transcriptase. Put plainly: Inhibition of HIV1 reverse transcriptase p66/p51 using TTP substrate by non-competitive inhibition type assay.
Experiment [7] deals with KB. Put plainly: Cytotoxicity against human KB cells. It is filed as functional. The note with it: read-out: ED50 (the source's name).
For experiment [8], the target named is Human immunodeficiency virus type 1 reverse transcriptase (Human immunodeficiency virus 1) (UniProt Q72547). Put plainly: Inhibition of HIV1 reverse transcriptase p66/p51 at 50 ug/ml in presence of 2.5 ug/ml BSA.
Experiment [9] deals with ZR-75-1. The experiment can be described thus: Cytotoxicity against human ZR-75-1 cells. The note with it: read-out: ED50 (the source's name). Type of experiment: functional.
Experiment [10] concerns the target Human immunodeficiency virus type 1 reverse transcriptase (Human immunodeficiency virus 1) (UniProt Q72547). The experiment can be described thus: Inhibition of HIV1 reverse transcriptase p66/p51 at 50 ug/ml in presence of 250 ug/ml BSA.
Experiment [11] concerns the target T1, Human immunodeficiency virus type 1 reverse transcriptase. Put plainly: Inhibition of HIV1 reverse transcriptase p66/p51 using template-primer [oligo(dT)12-18 + poly(rA)] by mixed type competitive inhibition assay.
Experiment [12] deals with DNA. The experiment can be described thus: Binding affinity to calf thymus DNA assessed as inhibition of DNA peak at 260 nm wavelength at 250 ug/ml by HPLC. Type of experiment: nucleic-acid assay. The conditions noted are these: Bos taurus.
In experiment [13] the target is Human immunodeficiency virus type 1 reverse transcriptase (Human immunodeficiency virus 1) (UniProt Q72547). The experiment can be described thus: Inhibition of HIV1 reverse transcriptase p66/p51 at 50 ug/ml in presence of 1000 ug/ml BSA.
In experiment [14] the test system is LNCaP. The experiment can be described thus: Cytotoxicity against human LNCAP cells. The note with it: read-out: ED50 (the source's name). It is filed as functional.
The subject of experiment [15] is Lu1. Put plainly: Cytotoxicity against human Lu1 cells. Type of experiment: functional. The note with it: read-out: ED50 (the source's name).
In experiment [16] the target is Human immunodeficiency virus type 1 reverse transcriptase (Human immunodeficiency virus 1) (UniProt Q72547). Put plainly: Inhibition of HIV1 reverse transcriptase p66/p51 at 200 ug/ml in presence of 250 ug/ml BSA.
Experiment [17] concerns the target T1, Human immunodeficiency virus type 1 reverse transcriptase. Put plainly: Inhibition of HIV1 reverse transcriptase p66/p51 using TTP substrate by mixed type competitive inhibition assay.
Experiment [18] has as its target Human immunodeficiency virus type 1 reverse transcriptase (Human immunodeficiency virus 1) (UniProt Q72547). The experiment can be described thus: Inhibition of HIV1 reverse transcriptase p66/p51 at 200 ug/ml in presence of 1000 ug/ml BSA.
In experiment [19] the target is T1, Human immunodeficiency virus type 1 reverse transcriptase. The experiment can be described thus: Inhibition of HIV1 reverse transcriptase p66/p51 using template-primer [oligo(dT)12-18 + poly(rA)] by competitive type inhibition assay.

SMILES strings stand for the structures.

What is called IC50 is the concentration needed to halve the response being measured. A lower IC50 goes with inhibition by little substance. `CC1=C(C#C/C(C)=C/C=C/C(C)=C/C=C/C=C(C)/C=C/C=C(\C)C(=O)C[C@@]23O[C@]2(C)C[C@@H](O)CC3(C)C)C(C)(C)C[C@H](O)C1` [HALOCYNTHIAXANTHIN]: in [1], half-maximal inhibition (IC50) required 7.2 µM.

In the case of `Cc1cn([C@H]2C[C@H](N=[N+]=[N-])[C@@H](CO)O2)c(=O)[nH]c1=O` [ZIDOVUDINE], the IC50 in experiment [2] was greater than 20 µM; in [3], 0.2 µM; in experiment [4] it was greater than 20 µM; in experiment [5], 0.43 µM.

Usually Ki stands for a dissociation constant, usually derived from enzyme kinetics or from competition with a known ligand. Usually inhibition stands for the relative decrease from the control value, in per cent. Turning to `C=C1C(=O)O[C@@H](CCCCCCCCCCCCC)[C@@H]1C(=O)O` [PROTOLICHESTERINIC ACID], the Ki in experiment [6] came out at 7.1 µM; in experiment [11], 10 µM. The EC50 in experiment [7], in experiment [9], in experiment [14] and in [15] was greater than 20 µg/mL throughout. The IC50 in [2] came to 7.4 µM; in experiment [3], 29.6 µM; in experiment [1], 24.3 µM; in [4], 92.8 µM; in experiment [5] it was 21.9 µM. Moreover, the inhibition in [8] came out at 99%; in experiment [10], 52%; in [12], 1.3%; in experiment [13] it was 19%.

Take `COc1cc2c(ccc3c4cc(OC)c(OC)cc4c[n+](C)c23)cc1O`: the inhibition in experiment [12] was 100%.

As to `COc1cc(O)c2c(=O)c3c(O)c(-c4c(O)c([C@@H]5O[C@H](CO)[C@@H](O)[C@H](O)[C@H]5O)c(O)c5c(=O)cc(-c6ccc(O)c(O)c6)oc45)cc(O)c3oc2c1`, the inhibition in experiment [16] worked out at 89%; in experiment [18] it was 82%; in experiment [12] it was 71%. Moreover, the EC50 in [7], in experiment [9], in experiment [14] and in [15] was greater than 20 µg/mL in each case. The IC50 stood at 57.7 µM in experiment [2]; 56.6 µM in [3]; 42.9 µM in experiment [1]; 272 µM in experiment [4]; 81 µM in experiment [5]. The Ki in [17] is 7.1 µM; in experiment [19] it was 6.7 µM.

Regarding `CC1(C)CC[C@]2(C(=O)O)CC=C3[C@]4(C)CC[C@H]5C(C)(C)[C@@H](OC(=O)c6ccc(O)cc6)C[C@@H](O)[C@]5(C)[C@H]4CC[C@@]3(C)[C@H]2C1`, the Ki in [6] was found to be 8.3 µM; in [11], 6.7 µM. In addition, the EC50 in [7], in experiment [9], in experiment [14] and in experiment [15] was greater than 20 µg/mL throughout. The IC50 was 2.2 µM in [2], 59 µM in experiment [3], greater than 338 µM in [4] and 15.1 µM in experiment [5]. The inhibition in experiment [8] came to 94%; in experiment [10] it was 19%; in experiment [12], 0%; in experiment [13] it was 0.8%.

The molecule `CCCc1cc(=O)oc2c3c(c4c(c12)OC(C)(C)C=C4)O[C@H](C)[C@@H](C)[C@@H]3O` [CALANOLIDE A] displayed an IC50 in [1] of 1 µM.

(Values after ChEMBL document CHEMBL1159269, “Mechanistic evaluation of new plant-derived compounds that inhibit HIV-1 reverse transcriptase” (J Nat Prod, 1995).)
